≈ marks a conversion by molar mass, not a printed value.
How the values were obtained:
Escherichia coli = assay: Antibacterial activity against Escherichia coli K-12 assessed as bacterial growth inhibition measured after 16 to 20 hrs by CLSI protocol based broth microdilution method; format: functional
Staphylococcus aureus = assay: Antibacterial activity against Staphylococcus aureus ATCC 49775 assessed as bacterial growth inhibition measured after 16 to 20 hrs by CLSI protocol based broth microdilution method; format: functional

| MIC (Escherichia coli) | MIC (Staphylococcus aureus) | SMILES |
| --- | --- | --- |
| > 256 µg/mL | > 256 µg/mL | CCCCCCCCN(Cc1c2ccccc2c(Cl)c2ccccc12)C(=O)C(CCCCNC(=O)OCc1ccc([N+](=O)[O-])cc1)NC(=O)OCc1ccc([N+](=O)[O-])cc1 (centres undefined) |
| 4 µg/mL (≈ 8.3 µM) | 2 µg/mL (≈ 4.15 µM) | CCCCCCCCN(Cc1c2ccccc2c(Cl)c2ccccc12)C(=O)C(N)CCCCN (centres undefined) |

Reference: ChEMBL document CHEMBL4627358, “A hypoxia-activated antibacterial prodrug” (Bioorg Med Chem Lett, 2020)
